The source of these data is article PMC7352571, “New Anti-Cancer Strategy to Suppress Colorectal Cancer Growth Through Inhibition of ATG4B and Lysosome Function” (Cancers, 2020).

One assay deals with HeLa cells. Put plainly: CCK-8 cell viability assay, HeLa. It counts as cell-based. The following applies: Homo sapiens, HeLa; CCK-8 assay, 48 h. On the procedure: (§1) Cells were seeded and incubated overnight in 96-well plates at a density of 5 × 10^3 cells/well. […] A total of 10 µL CCK-8 were added to each well for additional 1 h and cell viability was measured by CCK-8 assay. Absorbance was measured at 450 nm. The IC50 values were calculated by GraphPad Prism 7 (GraphPad Software Inc., San Diego, CA, USA).
Background: Tetrazolium dyes change colour on reduction, which living cells bring about.

For the next assay, the system named is HCT116 cells. In words: CCK-8 cell viability assay, HCT116. The format is cell-based, Human. The following applies: Homo sapiens, HCT-116; CCK-8 assay, 48 h. How it is done: as §1
The next assay concerns HL60 cells. In words: CCK-8 cell viability assay, HL60. The format is cell-based. The following applies: Homo sapiens, HL-60; CCK-8 assay. On the procedure:
as §1

The target in a further assay is T1, ATG4B (Homo sapiens, UniProt Q9Y4P1).
T1 sequence (Q9Y4P1 1-393): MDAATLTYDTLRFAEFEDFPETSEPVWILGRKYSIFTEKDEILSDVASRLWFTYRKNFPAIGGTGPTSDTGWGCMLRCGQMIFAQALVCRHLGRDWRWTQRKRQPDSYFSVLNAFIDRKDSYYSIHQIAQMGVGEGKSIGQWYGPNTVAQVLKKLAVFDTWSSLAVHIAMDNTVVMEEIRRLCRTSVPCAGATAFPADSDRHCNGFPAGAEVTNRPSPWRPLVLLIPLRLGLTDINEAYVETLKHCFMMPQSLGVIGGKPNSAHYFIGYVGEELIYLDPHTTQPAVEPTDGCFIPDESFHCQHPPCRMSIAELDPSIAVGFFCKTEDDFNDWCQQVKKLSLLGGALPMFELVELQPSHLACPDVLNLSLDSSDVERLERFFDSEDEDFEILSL
Put plainly: FRET-based assay for ATG4B activity.

Assay [1] deals with proteolytic activity of lysosomes in HeLa cells. In words: DQ-BSA Red assay. It counts as cell-based. As to conditions: 6 h, 163N 5 or 10 µM, Baf 0.5 µM, E64D 25 µM plus pepstatin A 50 µM. How it is done:
Figure 5 163N causes lysosome dysfunction. […] . (C) HeLa cells were treated with or without 163N (10 µM) for 6 h, followed by immunostaining using cathepsin B and LAMP1 antibody. The colocalization of cathepsin B and LAMP1 was measured.
DQ-BSA Red assay: cells were incubated with 10 µg/mL DQ-BSA Red in EBSS medium at 37° for 1.5 h, and then new medium with or without the indicated compounds were added for another 4 or 6 h, and then fluorescence microscopy was used for detecting the intensity of red fluorescent.
Supplementary Materials: New Anti-Cancer Strategy
to Suppress Colorectal Cancer Growth Through
Inhibition of ATG4B and Lysosome Function
Figure S1. Compounds with a 6-methylpyrimidine-2,4-diamine structure could cause lysosome
inhibition. (A) The structure of the representative lysosome inhibitors. (B) GFP-LC3B HeLa cells were
treated with Baf (0.5 µM) or 5 µM of different lysosome inhibitors for 2 h, then LysoTracker Red (LTR,
25 ng/mL) was used and the relative LTR fluorescent intensity was measured. (C) HeLa cells were
firstly treated with 10 µg/mL DQ-BSA for 1.5 h, and then treated with Rap (1 µM), Baf (0.5 µM), E64D
(25 µM) plus pepstatin A (50 µM), or 5 µM of different lysosome inhibitors for 4 h.
Cancers 2020, 12, x; www.mdpi.com/journal/ cancers […]

Assay [2] has as its system lysosome acidity in HeLa cells. Put plainly: LysoTracker Red (LTR) assay, HeLa. It counts as cell-based. The following applies: 6 h, 163N 5 or 10 µM, Rap 1 µM, E64D 25 µM plus pepstatin A 50 µM. How it is done:
Figure 5 163N causes lysosome dysfunction. […] (C) HeLa cells were treated with or without 163N (10 µM) for 6 h, followed by immunostaining using cathepsin B and LAMP1 antibody. The colocalization of cathepsin B and LAMP1 was measured.
LTR assay: cells were incubated with LTR (25 nM) in HBSS medium at 37° for 30 min, and then fluorescence microscopy was used for detecting fluorescence intensity.

Description for ATG4B: A FRET-based assay for detecting ATG4B activity was carried out as described [45].

As to `CC(=O)Nc1ccc(/N=C/c2c(C)c(C#N)c3[nH]c4cc(C)ccc4n3c2=O)cc1` [XOS00125], the IC50 (as a rule, the concentration needed to halve the response being measured) with HeLa cells is > 100 µM; in the assay with HCT116 cells it was > 100 µM; with HL60 cells, > 100 µM; at ATG4B, 40.6 µM.

Consider `Nc1cc(O)nc(/C=C/c2ccco2)c1` [XGS00048], for which the IC50 with HeLa cells is > 100 µM; with HCT116 cells, > 100 µM; in the assay on HL60 cells it was > 100 µM; at ATG4B it was 13.8 µM.

Consider `O=C(Nc1ccc(-c2cc3ccccc3o2)cc1)c1ccco1` [XOS00201], for which the IC50 was 25.6 µM in the assay with HeLa cells, 19.6 µM in the assay on HCT116 cells, > 100 µM in the assay with HL60 cells and 8.98 µM at ATG4B.

With `COc1cccc(-c2cc3c([N+](=O)[O-])cc([N+](=O)[O-])cc3[nH]2)c1OC` [XOS00176], the IC50 in the assay on HeLa cells is > 100 µM; with HCT116 cells it was > 100 µM; with HL60 cells, > 100 µM; against ATG4B it was 23.8 µM.

Turning to `COc1cccc(/C=C/c2cc(N)cc(O)n2)c1` [XGS00043], the IC50 is > 100 µM in the assay on HeLa cells, > 100 µM with HCT116 cells, > 100 µM in the assay on HL60 cells and 36.3 µM against ATG4B.

`CCN1C(=O)/C(=C\c2cn(CC(=O)O)c3ccccc23)C(=O)N(c2ccc(Cl)cc2)C1=S` [XGS00119]: the IC50 is > 100 µM with HeLa cells, > 100 µM in the assay on HCT116 cells, > 100 µM in the assay on HL60 cells and 7.37 µM on ATG4B.

Regarding `COc1cccc(-c2cc3nc(-c4cccnc4)c(C#N)c(N)n3n2)c1` [XOS00154], the IC50 is > 100 µM with HeLa cells, > 100 µM in the assay on HCT116 cells, > 100 µM in the assay with HL60 cells and 40.7 µM against ATG4B.

For `CCOC(=O)c1cnc2c(/N=N/c3ccc(OCC)cc3)c(N)nn2c1N` [XOS00149], the IC50 was > 100 µM with HeLa cells, > 100 µM in the assay on HCT116 cells, > 100 µM in the assay on HL60 cells and 44 µM on ATG4B.

For the molecule `Cc1ccc(/C=C/c2cc(O)cc(=O)[nH]2)o1` [XGS00031], the IC50 was > 100 µM with HeLa cells, > 100 µM with HCT116 cells, > 100 µM in the assay with HL60 cells and 13 µM against ATG4B.

On to `COc1c2c(cc3oc(=O)c4c5cc(O)c(O)cc5oc4c13)OCC2` [XOS00207], for which the IC50 worked out at 87.1 µM with HeLa cells, 17.6 µM in the assay with HCT116 cells, 60.7 µM in the assay with HL60 cells and 2.31 µM against ATG4B.

For `CCOC(=O)c1c(-c2ccccc2)oc2ccc(O)cc12` [XOS00163], the IC50 was found to be 32 µM in the assay with HeLa cells, 23 µM in the assay on HCT116 cells, 31.7 µM in the assay on HL60 cells and 6.2 µM against ATG4B.

`COc1ccccc1/C=C/c1cc(O)cc(=O)[nH]1` [XGS00025]: the IC50 with HeLa cells is > 100 µM; with HCT116 cells it was > 100 µM; in the assay on HL60 cells, > 100 µM; against ATG4B, 29.2 µM.

Consider `N/C(=N\[N+](=O)[O-])N/N=C/c1ccc(-c2ccc(-n3cnnn3)cc2)o1` [XOS00117], for which the IC50 with HeLa cells was > 100 µM; with HCT116 cells, > 100 µM; in the assay on HL60 cells, > 100 µM; at ATG4B it was 6.65 µM.

Regarding `CO/C1=C\C(C)=C\[C@@H](C)[C@@H](O)[C@@H](C)C/C(C)=C/C=C/[C@H](OC)[C@@H]([C@@H](C)[C@@H](O)[C@H](C)[C@@]2(O)C[C@@H](O)[C@H](C)[C@@H](C(C)C)O2)OC1=O` [Baf, Bafilomycin A1, reference compound], the “dequenching of DQ-BSA (proteolytic activity of lysosome)” value in assay [1] was “nearly no dequenching of DQ-BSA”.

For the molecule `Nc1cc(O)nc(/C=C/c2ccc(Cl)cc2)c1` [XGS00046], the IC50 with HeLa cells was > 100 µM; in the assay with HCT116 cells it was > 100 µM; in the assay with HL60 cells, > 100 µM; at ATG4B, 39.1 µM.

On to `CO[C@H]1C[C@@H]2CC[C@@H](C)[C@@](O)(O2)C(=O)C(=O)N2CCCC[C@H]2C(=O)O[C@H]([C@H](C)C[C@@H]2CC[C@@H](O)[C@H](OC)C2)CC(=O)[C@H](C)/C=C(\C)[C@@H](O)[C@@H](OC)C(=O)[C@H](C)C[C@H](C)/C=C/C=C/C=C/1C` [Rap, rapamycin, reference compound], for which the “LTR red fluorescence / acidic vesicles” value in assay [2] is recorded as “stable”.
